# Legend:
# [1] = test system: human lung cancer in lung of mice; assay: Mouse model bearing human lung cancer in lung (A549 or Anti-Dox-A549 cells injected); settings: HCD 0.0318 or 1.272 mg/kg, PG 0.1615 or 0.646 mg/kg body weight, IT injection to the lung, monitored every five days for thirty days
# Procedure: The animal experiments were approved by the National Dong-Hwa University Animal Ethics Committee and the experimental protocols were used according to the “Guide for the Care and Use of Laboratory Animals” of National Dong-Hwa University. 1×10^7 of A549 cells or Anti-Dox-A549 cells were suspended in PBS to prepare cell suspensions. On day 0, C57/BL6 mice (6-8 weeks old, n=6) were weighted and anesthetic using pentobarbital (5 mg/ml). Then, the mice were injected with the cell suspension (1×10^7 cells per mouse) into the lung by IT. The injection was repeated every 7 days for 21 days. Another group of mice were injected with 10% EtOH as comparative group according to the same procedure set forth above.
# After the establishment of human lung cancer in the experimental mice, the mice were maintained for one more week and then treated with HCD (0.0318 or 1.272 mg/kg body weight, in 10% ETOH with PBS), PG (0.1615 or 0.646 mg/kg body weight, in 10% ETOH with PBS) or 10% EtOH by IT injection (intrathecal injection) to the lung. The body weight was monitored every five days for thirty days. After thirty days, the mice were sacrificed and the lungs were checked for marker of human lung adenocarcinoma by H&E and IHC staining. The livers, kidneys and spleens of the mice were also examined to confirm the cytotoxicity of HCD and PG and to see if there was any metastasis happened.
# A549 cells = assay: Cell cycle analysis by flow cytometer (PI staining); assay type: cell-based, human; settings: A549
# Procedure: (§1) The results of Example 2 in cell viability hinted the effects of HCD, PG, and Dox on arresting cell cycle. In this example, the phase of cell cycle of A549 cells and Anti-Dox-A549 cells after the treatment listed in Table 1 was determined by flow cytometer. Briefly, 7×10^4 cells per well were to inoculated in 12-wells plate and incubated overnight at 37° C., 5% CO2. Then, cells were treated according to the treatment listed in Table 1 by indicated time period. After treatment, cells were harvested by trypsin and fixed with 70% ethanol at −20° C. for at least 3 hr. The cells were washed in cold PBS twice and then incubated with 1 ml (v/v) staining solution (20 μg/m1 propidium iodide (PI), 0.1% Triton X-100, 0.2 mg/ml Rnase) at 37° C. for 30 minutes. Lastly, cells were analyzed by flow cytometer (Cytomics™ FC500, Backman, Fullerton, Calif., USA). Data from 10,000 cells were collected for each experimental group.
# Anti-Dox-A549 cells = assay: as above; assay type: cell-based, human; settings: Anti-Dox-A549
# Procedure: as §1
smiles,measurement,setting,value
"CCCCCC1=C/C(=C/c2[nH]c(-c3ccc[nH]3)cc2OC)N=C1C [PG, Prodigiosin]",body weight of the experimental mice,[1],did not show significantly change
same,G0/G1 (%),"A549 cells; PG 2.5 μM, 6 hr",46.3 ± 3.4 %
same,G2/M (%),"A549 cells; PG 2.5 μM, 6 hr",32.3 ± 3.1 %
same,S (%),"A549 cells; PG 2.5 μM, 6 hr",17.3 ± 1.2 %
same,Sub G1 (%),"A549 cells; PG 2.5 μM, 6 hr",0.3 ± 0.1%
same,G0/G1 (%),"A549 cells; PG 2.5 μM, 12 hr",62.7 ± 2.7%
same,G2/M (%),"A549 cells; PG 2.5 μM, 12 hr",27.6 ± 0.7 %
same,S (%),"A549 cells; PG 2.5 μM, 12 hr",6.6 ± 2.1 %
same,Sub G1 (%),"A549 cells; PG 2.5 μM, 12 hr",0.4 ± 0.2%
same,G0/G1 (%),"A549 cells; PG 2.5 μM, 24 hr",85 ± 0.6^ %
same,G2/M (%),"A549 cells; PG 2.5 μM, 24 hr",11.6 ± 0.7%
same,S (%),"A549 cells; PG 2.5 μM, 24 hr",1.9 ± 0.15 %
same,Sub G1 (%),"A549 cells; PG 2.5 μM, 24 hr",0.26 ± 0.05%
same,G0/G1 (%),"A549 cells; PG 5 μM, 6 hr",42.9 ± 2.1 %
same,G2/M (%),"A549 cells; PG 5 μM, 6 hr",34.8 ± 0.9 %
same,S (%),"A549 cells; PG 5 μM, 6 hr",18.2 ± 0.8 %
same,Sub G1 (%),"A549 cells; PG 5 μM, 6 hr",0.26 ± 0.05%
same,G0/G1 (%),"A549 cells; PG 5 μM, 12 hr",53.3 ± 1.2 %
same,G2/M (%),"A549 cells; PG 5 μM, 12 hr",33.1 ± 0.2 %
same,S (%),"A549 cells; PG 5 μM, 12 hr",10.0 ± 2.0 %
same,Sub G1 (%),"A549 cells; PG 5 μM, 12 hr",0.36 ± 0.2%
same,G0/G1 (%),"A549 cells; PG 5 μM, 24 hr",76.2 ± 8.1 %
same,G2/M (%),"A549 cells; PG 5 μM, 24 hr",22.2 ± 1.1%
same,S (%),"A549 cells; PG 5 μM, 24 hr",3.0 ± 0.75 %
same,Sub G1 (%),"A549 cells; PG 5 μM, 24 hr",0.23 ± 0.05%
same,G0/G1 (%),"A549 cells; PG 10 μM, 6 hr",43.8 ± 3.1 %
same,G2/M (%),"A549 cells; PG 10 μM, 6 hr",27 ± 2.9%
same,S (%),"A549 cells; PG 10 μM, 6 hr",18.8 ± 0.5 %
same,Sub G1 (%),"A549 cells; PG 10 μM, 6 hr",0.33 ± 0.05%
same,G0/G1 (%),"A549 cells; PG 10 μM, 12 hr",41.6 ± 1.3 %
same,G2/M (%),"A549 cells; PG 10 μM, 12 hr",29.1 ± 3.0 %
same,S (%),"A549 cells; PG 10 μM, 12 hr",16.6 ± 1.4%
same,Sub G1 (%),"A549 cells; PG 10 μM, 12 hr",0.46 ± 0.1%
same,G0/G1 (%),"A549 cells; PG 10 μM, 24 hr",43.8 ± 2.4 %
same,G2/M (%),"A549 cells; PG 10 μM, 24 hr",26.5 ± 10.0%
same,S (%),"A549 cells; PG 10 μM, 24 hr",9.1 ± 1.7 %
same,Sub G1 (%),"A549 cells; PG 10 μM, 24 hr",0.9 ± 0.7%
same,G0/G1 (%),"Anti-Dox-A549 cells; PG 2.5 μM, 6 hr",58.9 ± 7.1%
same,G2/M (%),"Anti-Dox-A549 cells; PG 2.5 μM, 6 hr",23.5 ± 1.9%
same,S (%),"Anti-Dox-A549 cells; PG 2.5 μM, 6 hr",18.5 ± 0.5%
same,Sub G1 (%),"Anti-Dox-A549 cells; PG 2.5 μM, 6 hr",2.2 ± 0.1 %
same,G0/G1 (%),"Anti-Dox-A549 cells; PG 2.5 μM, 12 hr",65.3 ± 2.9%
same,G2/M (%),"Anti-Dox-A549 cells; PG 2.5 μM, 12 hr",17.2 ± 6.5%
same,S (%),"Anti-Dox-A549 cells; PG 2.5 μM, 12 hr",13.8 ± 4.7%
same,Sub G1 (%),"Anti-Dox-A549 cells; PG 2.5 μM, 12 hr",1.6 ± 1.2%
same,G0/G1 (%),"Anti-Dox-A549 cells; PG 2.5 μM, 24 hr",81.8 ± 5.7%
same,G2/M (%),"Anti-Dox-A549 cells; PG 2.5 μM, 24 hr",8.8 ± 1.4%
same,S (%),"Anti-Dox-A549 cells; PG 2.5 μM, 24 hr",3.1 ± 1.3 %
same,Sub G1 (%),"Anti-Dox-A549 cells; PG 2.5 μM, 24 hr",0.9 ± 0.3%
same,G0/G1 (%),"Anti-Dox-A549 cells; PG 5 μM, 6 hr",56 ± 1.3%
same,G2/M (%),"Anti-Dox-A549 cells; PG 5 μM, 6 hr",23.6 ± 2.3%
same,S (%),"Anti-Dox-A549 cells; PG 5 μM, 6 hr",18.7 ± 0.8%
same,Sub G1 (%),"Anti-Dox-A549 cells; PG 5 μM, 6 hr",1.9 ± 0.3%
same,G0/G1 (%),"Anti-Dox-A549 cells; PG 5 μM, 12 hr",62.7 ± 4.7 %
same,G2/M (%),"Anti-Dox-A549 cells; PG 5 μM, 12 hr",19.2 ± 6.9%
same,S (%),"Anti-Dox-A549 cells; PG 5 μM, 12 hr",16.8 ± 5.5%
same,Sub G1 (%),"Anti-Dox-A549 cells; PG 5 μM, 12 hr",2.9 ± 1.0%
same,G0/G1 (%),"Anti-Dox-A549 cells; PG 5 μM, 24 hr",76.2 ± 6.0%
same,G2/M (%),"Anti-Dox-A549 cells; PG 5 μM, 24 hr",13.8 ± 1.7%
same,S (%),"Anti-Dox-A549 cells; PG 5 μM, 24 hr",3.7 ± 2.0 %
same,Sub G1 (%),"Anti-Dox-A549 cells; PG 5 μM, 24 hr",4.3 ± 5.3%
same,G0/G1 (%),"Anti-Dox-A549 cells; PG 10 μM, 6 hr",54.6 ± 3.0 %
same,G2/M (%),"Anti-Dox-A549 cells; PG 10 μM, 6 hr",19.8 ± 6.6%
same,S (%),"Anti-Dox-A549 cells; PG 10 μM, 6 hr",22.9 ± 3.4 %
same,Sub G1 (%),"Anti-Dox-A549 cells; PG 10 μM, 6 hr",2 ± 0.6%
same,G0/G1 (%),"Anti-Dox-A549 cells; PG 10 μM, 12 hr",53.2 ± 2.5 %
same,G2/M (%),"Anti-Dox-A549 cells; PG 10 μM, 12 hr",22.8 ± 6.4%
same,S (%),"Anti-Dox-A549 cells; PG 10 μM, 12 hr",21.4 ± 3.7%
same,Sub G1 (%),"Anti-Dox-A549 cells; PG 10 μM, 12 hr",1.8 ± 0.2%
same,G0/G1 (%),"Anti-Dox-A549 cells; PG 10 μM, 24 hr",44.3 ± 7.7 %
same,G2/M (%),"Anti-Dox-A549 cells; PG 10 μM, 24 hr",27.9 ± 1.9 %
same,S (%),"Anti-Dox-A549 cells; PG 10 μM, 24 hr",11.7 ± 3.7%
same,Sub G1 (%),"Anti-Dox-A549 cells; PG 10 μM, 24 hr",6.9 ± 4.3%

# — patent publication US20150329512A1, “METHOD AND PHARMACEUTICAL COMPOSITION FOR TREATING LUNG CANCER” (National Dong Hua University, priority 2014, published 2015)
